{"source": "patent US20230348418A1", "about": "“ISOINDOLINONE COMPOUNDS” (Monte Rosa Therapeutics, Inc., priority 2021, published 2023)", "key": {"GSPT1 [1]": {"target": "T1, GSPT1 (Homo sapiens, UniProt P15170+Q96SW2)", "T1 sequence (P15170 whole entry)": "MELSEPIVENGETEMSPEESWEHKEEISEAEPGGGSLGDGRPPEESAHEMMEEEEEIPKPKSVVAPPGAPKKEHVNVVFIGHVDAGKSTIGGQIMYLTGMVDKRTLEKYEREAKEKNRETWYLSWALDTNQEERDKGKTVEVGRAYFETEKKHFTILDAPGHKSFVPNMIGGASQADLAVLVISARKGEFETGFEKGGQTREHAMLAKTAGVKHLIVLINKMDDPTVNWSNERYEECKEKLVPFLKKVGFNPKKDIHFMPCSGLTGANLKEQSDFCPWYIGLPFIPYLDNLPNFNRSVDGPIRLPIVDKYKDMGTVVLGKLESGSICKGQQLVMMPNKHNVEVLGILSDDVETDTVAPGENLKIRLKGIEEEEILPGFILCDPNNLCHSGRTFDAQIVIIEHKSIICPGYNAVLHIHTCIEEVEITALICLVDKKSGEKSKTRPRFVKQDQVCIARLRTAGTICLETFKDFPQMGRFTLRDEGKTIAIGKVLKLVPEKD", "T1 sequence (Q96SW2 whole entry)": "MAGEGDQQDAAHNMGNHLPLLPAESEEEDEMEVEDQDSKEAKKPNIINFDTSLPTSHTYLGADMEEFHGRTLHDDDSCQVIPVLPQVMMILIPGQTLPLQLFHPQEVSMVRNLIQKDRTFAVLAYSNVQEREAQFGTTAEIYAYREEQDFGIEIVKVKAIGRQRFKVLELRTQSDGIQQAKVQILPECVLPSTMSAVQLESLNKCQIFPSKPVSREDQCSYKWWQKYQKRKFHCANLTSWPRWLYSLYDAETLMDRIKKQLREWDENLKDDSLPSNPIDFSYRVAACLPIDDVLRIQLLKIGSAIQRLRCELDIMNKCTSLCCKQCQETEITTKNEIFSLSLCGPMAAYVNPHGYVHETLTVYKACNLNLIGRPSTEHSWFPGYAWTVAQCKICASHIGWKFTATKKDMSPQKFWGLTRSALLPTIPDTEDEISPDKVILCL", "T1 sequence (Q16531 2-1140 partner limits assumed)": "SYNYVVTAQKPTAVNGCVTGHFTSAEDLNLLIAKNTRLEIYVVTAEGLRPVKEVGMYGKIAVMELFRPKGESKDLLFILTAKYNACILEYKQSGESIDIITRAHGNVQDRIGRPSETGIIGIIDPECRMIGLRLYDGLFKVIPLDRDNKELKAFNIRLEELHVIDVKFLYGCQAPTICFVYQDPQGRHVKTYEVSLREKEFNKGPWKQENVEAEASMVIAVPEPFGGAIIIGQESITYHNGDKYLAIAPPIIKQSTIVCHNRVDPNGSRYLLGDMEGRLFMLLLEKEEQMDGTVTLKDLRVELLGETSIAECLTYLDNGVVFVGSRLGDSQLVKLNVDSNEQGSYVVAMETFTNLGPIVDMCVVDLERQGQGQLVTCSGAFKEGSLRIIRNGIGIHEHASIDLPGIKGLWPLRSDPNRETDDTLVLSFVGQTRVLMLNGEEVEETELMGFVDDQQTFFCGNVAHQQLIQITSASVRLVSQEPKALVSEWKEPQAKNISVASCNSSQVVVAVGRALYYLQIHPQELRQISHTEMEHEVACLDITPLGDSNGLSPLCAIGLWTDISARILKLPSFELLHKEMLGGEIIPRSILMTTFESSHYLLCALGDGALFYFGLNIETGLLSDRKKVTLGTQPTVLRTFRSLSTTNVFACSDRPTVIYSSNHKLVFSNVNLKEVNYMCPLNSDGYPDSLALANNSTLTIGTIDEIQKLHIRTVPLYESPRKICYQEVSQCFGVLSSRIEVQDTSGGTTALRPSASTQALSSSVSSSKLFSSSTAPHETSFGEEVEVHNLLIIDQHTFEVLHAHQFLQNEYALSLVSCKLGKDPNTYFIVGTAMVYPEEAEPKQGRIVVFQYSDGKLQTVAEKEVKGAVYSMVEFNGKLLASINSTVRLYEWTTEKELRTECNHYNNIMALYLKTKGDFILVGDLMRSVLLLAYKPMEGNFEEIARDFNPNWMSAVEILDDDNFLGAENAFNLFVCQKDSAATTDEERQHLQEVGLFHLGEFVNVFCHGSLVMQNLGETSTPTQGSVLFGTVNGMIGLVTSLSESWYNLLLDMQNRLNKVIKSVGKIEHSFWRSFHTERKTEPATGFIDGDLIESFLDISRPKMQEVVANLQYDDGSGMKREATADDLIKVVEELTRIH", "assay": "Quantitative proteomics analysis in ABC1 cells", "format": "cell-based", "conditions": "100 nM, 6 hr", "method": "Quantitative Proteomics Analysis: ABC1 cells were treated with either DMSO (2 replicates) or compound 10 at 100 nM (2 replicates) for 6 hr. Proteins were extracted with the PreOmics iST-NHS lysis buffer (#P.O.00030). The samples were then processed using the PreOmics kit following their recommended protocol with minor modifications. In brief, the proteins were reduced, alkylated and digested for 2 h at 37° C. The peptides were then labelled with TMT reagent (1:4; peptide:TMT label) (Thermo Fisher Scientific). After quenching, the peptides were purified, and the 16 samples were combined to a 1:1 ratio. […] Eluted TMT peptides were analyzed on an Orbitrap Eclipse mass spectrometer (Thermo Fisher Scientific). […] Precursors were fragmented by CID at a normalized collision energy (NCE) of 35% and analyzed in the ion trap. Following MS2, synchronous precursor selection (SPS) MS3 scans were collected by using high energy collision-induced dissociation (HCD) and fragments were analyzed using the Orbitrap (NCE 55%, AGC target 1×10^5, maximum injection time 120 ms, resolution 60,000). Protein identification and quantification were performed using Proteome Discoverer 2.4.0.305 with the SEQUEST algorithm and Uniprot human database (2021-01-29, 20614 protein sequences). […] Protein relative quantification was performed using an in-house developed java notebook. […]"}, "GSPT1 [2]": {"target": "T1, GSPT1", "assay": "GSPT1 levels by western blotting/densitometry in NSCLC cell lines NCI-H1155 and ABC-1", "format": "cell-based", "method": "The anti-proliferative activity of compound 10 was tested on representative N-Myc high and N-Myc low cell lines (NCI-H1155, ABC-1 and EBC-1, NCI-H2023, respectively) following treatment with compound for 72 hours. Cells were sub-cultures as recommended by the providers (ATCC, DSMZ) and incubated at 37° C., 5% CO2. All cells were authenticated and confirmed by Short Tandem Repeat (STR) profiling. Briefly, cells were seeded to the appropriate density to allow logarithmic growth over the assay period in 96-well opaque-walled clear bottom plates (from Corning, Cat. No. 3903, Lot. No. 16419061; 100 μL total volume) and incubated overnight. […] Cell viability was assessed using the CellTiter-Glo assay kit as recommended by the Manufacturer (Promega, Cat. No. G7558, Lot. No. 0000385738) and measurements performed on the EnSpire multimode plate reader (Perkin Elmer). EC50 values were determined using Prism8 (GraphPad) and the asymmetric (five-parameter) equation and least squares fit. GSPT1 levels were assessed in the NCI-H1155 and ABC-1 cell lines by densitometry analysis following treatment with compound 10 for 6 hours and western blotting analysis. […] For chemiluminescence and colorimetric signals “optimal automatic exposure” settings (3×3 binning) were employed while fluorescence was detected using 1-4 seconds exposure time to achieve best GAPDH signals and avoid overexposure. […]"}}}
{"molecule": "Cc1ccc(NC(=O)OCc2ccc3c(c2)C(=O)N(C2CCC(=O)NC2=O)C3)cc1Cl", "note": "(stereo not drawn) [Compound 10]", "values": [{"measurement": "Protein downregulation in mass spectrometry-based proteomics (FIG. 1B)", "setting": "GSPT1 [1]", "result": "GSPT1 was the most statistically significant downregulated protein"}, {"measurement": "Concentration dependence of GSPT1 degradation (FIG. 2B)", "setting": "GSPT1 [2]; NCI-H1155 and ABC-1 cells", "result": "Degradation took place in a concentration dependent manner"}, {"measurement": "extent of GSPT1 degradation", "setting": "GSPT1 [2]; high N-Myc NCI-H1155 and ABC-1 cells, six hours of treatment", "result": "Complete degradation of GSPT1"}]}
